Here are results for 1 molecule from publication PMC10482691, “LTP induction by structural rather than enzymatic functions of CaMKII” (Nature, 2023).

What all share (format): biochemical
In one assay the target is Pim-3(h) (Homo sapiens, UniProt Q86V86). In words: Kinase selectivity panel (residual activity at 1 μM). Conditions: inhibitor at 1 μM; read-out: residual kinase activity in % of maximal activity.
A further assay has as its target GSK3α(h) (Homo sapiens, UniProt P49840). Described as above. Conditions: inhibitor at 1 μM; read-out: residual kinase activity in % of maximal activity.
The target in another assay is CaMKIIβ(h) (Homo sapiens, UniProt Q13554). The assay is described as above. Conditions: inhibitor at 1 μM; read-out: residual kinase activity in % of maximal activity.
For a further assay, the target named is MEK1(h) (Homo sapiens, UniProt Q02750). The description is as above. Conditions: inhibitor at 1 μM; read-out: residual kinase activity in % of maximal activity.
MEK1(h), sequence (Q02750 whole entry): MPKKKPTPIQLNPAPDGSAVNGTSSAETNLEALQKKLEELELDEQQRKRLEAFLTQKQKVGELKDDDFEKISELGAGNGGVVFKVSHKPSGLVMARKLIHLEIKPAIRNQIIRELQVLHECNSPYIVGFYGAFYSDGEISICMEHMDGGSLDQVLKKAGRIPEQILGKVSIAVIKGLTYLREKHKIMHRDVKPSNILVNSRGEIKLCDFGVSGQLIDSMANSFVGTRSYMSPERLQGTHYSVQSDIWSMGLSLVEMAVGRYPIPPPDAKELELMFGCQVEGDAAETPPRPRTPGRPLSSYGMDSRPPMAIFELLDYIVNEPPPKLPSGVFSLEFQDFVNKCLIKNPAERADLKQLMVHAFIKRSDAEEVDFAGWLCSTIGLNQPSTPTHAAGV
For a further assay, the target named is purified CaMKIIα (Rattus norvegicus, UniProt P11275). In words: In vitro kinase reaction: CaMKIIα autophosphorylation of T286. The conditions noted are these: 30 °C, 1 mM ATP, Ki from IC50 with Km ATP 33.3 μM, read-out: apparent inhibitor constant (Ki), pT286. The method, then: Data are presented as mean values ± s.e.m. a, Schematic of the AS283 inhibitor mechanism of action: ATP-competitive inhibition blocks enzymatic activity while mimicking the nucleotide binding requirement to allow interaction with GluN2B. b, Representative immunoblot and quantification of in vitro kinase reactions at 30 °C in 1 mM ATP measuring purified CaMKIIα phosphorylation of GST–GluA1 S831 with varying concentrations of AS283 (0.41–10 μM; n = 4 independent concentration curves). For a negative control (Neg.), ATP was omitted. […] ADP:AS283 P = 0.0697; ADP:tatCN21 P < 0.0001. ***P < 0.001. d, Confocal microscopy images of HEK293 cells co-expressing GFP–CaMKII and mCherry-2BC. […] CaMKII synaptic enrichment was measured before and after cLTP (n = 14,9 cells; RM two-way ANOVA with Šídák’s multiple comparisons test). […]
CaMKII-mediated phosphorylation of GluA1 S831 or GluN2B S1303 was measured by in vitro kinase reaction with a purified GST–GluA1 C-terminal tail or GST-GluN2B C-terminal tail. […] GST, phospho-S831, CaMKII, phospho-T286 or phospho-S1303 were detected in the samples by immunoblot analysis.
The inhibition constant Ki was calculated using the Cheng–Prusoff equation for competitive inhibition: Ki = IC50/(1 + [ATP]/Km).

A further assay deals with PKG1β(h) (Homo sapiens, UniProt Q13976). In words: Kinase selectivity panel (residual activity at 1 μM). The conditions noted are these: inhibitor at 1 μM; read-out: residual kinase activity in % of maximal activity.
Another assay concerns the target CaMKI(h) (Homo sapiens, UniProt Q14012). The description is as above. The conditions noted are these: inhibitor at 1 μM; read-out: residual kinase activity in % of maximal activity.
A further assay addresses FAK(h) (Homo sapiens, UniProt Q05397). Described as above. The conditions noted are these: inhibitor at 1 μM; read-out: residual kinase activity in % of maximal activity.
In another assay the target is FGFR1(h) (Homo sapiens, UniProt P11362). Described as above. Conditions: inhibitor at 1 μM; read-out: residual kinase activity in % of maximal activity.
The next assay has as its target Flt3(h) (Homo sapiens, UniProt P36888). Described as above. Conditions: inhibitor at 1 μM; read-out: residual kinase activity in % of maximal activity.
For the next assay, the target named is Arg(h) (Homo sapiens, UniProt P42684). The assay is described as above. Conditions: inhibitor at 1 μM; read-out: residual kinase activity in % of maximal activity.
Another assay addresses mTOR(h) (Homo sapiens, UniProt P42345). Described as above. The conditions noted are these: inhibitor at 1 μM; read-out: residual kinase activity in % of maximal activity.
For the next assay, the target named is Ret(h) (Homo sapiens, UniProt P07949). The description is as above. Conditions: inhibitor at 1 μM; read-out: residual kinase activity in % of maximal activity.
Ret(h), sequence (P07949 29-1114): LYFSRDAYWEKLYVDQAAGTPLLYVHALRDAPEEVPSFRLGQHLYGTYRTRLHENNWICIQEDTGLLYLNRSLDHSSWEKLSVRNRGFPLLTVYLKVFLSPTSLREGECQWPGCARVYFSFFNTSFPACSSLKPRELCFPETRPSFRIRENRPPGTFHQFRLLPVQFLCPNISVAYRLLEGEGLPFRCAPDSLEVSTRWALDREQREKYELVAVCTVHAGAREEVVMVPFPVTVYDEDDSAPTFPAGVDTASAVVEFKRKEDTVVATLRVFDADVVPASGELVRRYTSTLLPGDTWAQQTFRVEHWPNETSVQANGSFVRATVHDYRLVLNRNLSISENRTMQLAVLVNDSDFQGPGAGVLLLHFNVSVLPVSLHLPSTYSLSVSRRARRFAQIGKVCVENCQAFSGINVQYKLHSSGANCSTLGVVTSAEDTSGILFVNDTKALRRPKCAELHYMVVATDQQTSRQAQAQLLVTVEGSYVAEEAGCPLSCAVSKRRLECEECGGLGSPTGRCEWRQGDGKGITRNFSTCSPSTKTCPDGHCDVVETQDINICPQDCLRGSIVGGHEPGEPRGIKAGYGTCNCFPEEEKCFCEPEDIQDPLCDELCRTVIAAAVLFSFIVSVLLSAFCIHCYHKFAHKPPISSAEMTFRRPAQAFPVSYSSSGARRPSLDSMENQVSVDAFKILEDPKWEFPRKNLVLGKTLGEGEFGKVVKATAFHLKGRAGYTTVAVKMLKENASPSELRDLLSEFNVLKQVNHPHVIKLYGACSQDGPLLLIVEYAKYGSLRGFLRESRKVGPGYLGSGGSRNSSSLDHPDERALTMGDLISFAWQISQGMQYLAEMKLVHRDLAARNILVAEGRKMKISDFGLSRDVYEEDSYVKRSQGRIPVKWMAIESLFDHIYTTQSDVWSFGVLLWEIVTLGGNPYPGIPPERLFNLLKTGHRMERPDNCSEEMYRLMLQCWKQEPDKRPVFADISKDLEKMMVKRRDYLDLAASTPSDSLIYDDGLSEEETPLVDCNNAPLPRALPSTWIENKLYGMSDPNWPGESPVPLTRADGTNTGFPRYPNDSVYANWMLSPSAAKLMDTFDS
The target in the next assay is PAK2(h) (Homo sapiens, UniProt Q13177). Described as above. Conditions: inhibitor at 1 μM; read-out: residual kinase activity in % of maximal activity.
PAK2(h), sequence (Q13177 whole entry): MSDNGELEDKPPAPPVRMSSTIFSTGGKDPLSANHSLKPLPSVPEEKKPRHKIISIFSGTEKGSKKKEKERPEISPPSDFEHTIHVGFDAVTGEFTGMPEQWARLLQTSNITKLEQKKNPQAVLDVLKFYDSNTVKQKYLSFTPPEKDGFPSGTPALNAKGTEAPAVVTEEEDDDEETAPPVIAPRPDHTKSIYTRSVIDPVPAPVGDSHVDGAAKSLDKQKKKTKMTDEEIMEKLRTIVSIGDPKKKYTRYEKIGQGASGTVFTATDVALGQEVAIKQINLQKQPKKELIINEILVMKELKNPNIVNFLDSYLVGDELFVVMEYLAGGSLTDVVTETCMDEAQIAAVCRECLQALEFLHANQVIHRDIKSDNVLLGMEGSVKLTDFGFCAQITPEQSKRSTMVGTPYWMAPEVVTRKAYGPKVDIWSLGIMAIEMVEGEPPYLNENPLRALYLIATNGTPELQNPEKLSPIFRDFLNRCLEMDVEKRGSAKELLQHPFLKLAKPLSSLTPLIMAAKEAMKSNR

pKi: −log10 of the molar value.

Flt3(h), sequence (P36888 27-993): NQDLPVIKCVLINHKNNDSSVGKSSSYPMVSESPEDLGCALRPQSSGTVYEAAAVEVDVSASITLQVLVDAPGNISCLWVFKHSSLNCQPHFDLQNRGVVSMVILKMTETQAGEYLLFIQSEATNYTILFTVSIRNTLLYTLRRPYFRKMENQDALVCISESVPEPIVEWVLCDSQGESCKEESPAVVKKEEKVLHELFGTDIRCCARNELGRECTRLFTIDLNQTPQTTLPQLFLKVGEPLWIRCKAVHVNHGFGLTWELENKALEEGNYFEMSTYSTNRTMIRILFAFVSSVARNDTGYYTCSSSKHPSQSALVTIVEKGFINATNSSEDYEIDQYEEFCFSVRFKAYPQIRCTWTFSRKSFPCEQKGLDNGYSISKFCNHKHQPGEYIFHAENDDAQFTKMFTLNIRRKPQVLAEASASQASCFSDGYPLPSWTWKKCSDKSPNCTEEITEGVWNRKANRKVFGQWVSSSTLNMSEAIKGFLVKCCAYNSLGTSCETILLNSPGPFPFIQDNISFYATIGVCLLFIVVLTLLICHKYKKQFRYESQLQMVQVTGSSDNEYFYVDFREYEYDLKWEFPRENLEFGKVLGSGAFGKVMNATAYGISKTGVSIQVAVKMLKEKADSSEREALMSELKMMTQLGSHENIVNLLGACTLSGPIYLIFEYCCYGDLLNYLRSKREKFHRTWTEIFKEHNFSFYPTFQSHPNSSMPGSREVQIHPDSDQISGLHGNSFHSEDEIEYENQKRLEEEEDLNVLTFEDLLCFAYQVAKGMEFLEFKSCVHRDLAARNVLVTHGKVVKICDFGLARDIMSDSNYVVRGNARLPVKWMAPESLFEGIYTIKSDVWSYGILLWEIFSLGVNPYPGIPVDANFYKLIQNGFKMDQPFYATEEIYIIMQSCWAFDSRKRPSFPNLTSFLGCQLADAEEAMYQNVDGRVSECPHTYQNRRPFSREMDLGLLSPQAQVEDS
GSK3α(h), sequence (P49840 whole entry): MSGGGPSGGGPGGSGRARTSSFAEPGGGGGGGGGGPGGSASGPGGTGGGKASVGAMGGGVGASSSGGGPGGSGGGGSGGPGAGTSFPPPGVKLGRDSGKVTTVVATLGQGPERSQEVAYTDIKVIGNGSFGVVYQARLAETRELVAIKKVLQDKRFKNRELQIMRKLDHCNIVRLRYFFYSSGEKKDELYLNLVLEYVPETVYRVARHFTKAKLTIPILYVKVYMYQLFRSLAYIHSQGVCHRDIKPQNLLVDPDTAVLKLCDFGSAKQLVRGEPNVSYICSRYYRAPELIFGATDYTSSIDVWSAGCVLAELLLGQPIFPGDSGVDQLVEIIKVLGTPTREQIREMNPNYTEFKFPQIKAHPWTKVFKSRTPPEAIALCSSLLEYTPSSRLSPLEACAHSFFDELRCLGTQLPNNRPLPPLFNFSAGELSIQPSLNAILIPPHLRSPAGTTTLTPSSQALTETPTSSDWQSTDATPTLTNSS
FAK(h), sequence (Q05397 whole entry): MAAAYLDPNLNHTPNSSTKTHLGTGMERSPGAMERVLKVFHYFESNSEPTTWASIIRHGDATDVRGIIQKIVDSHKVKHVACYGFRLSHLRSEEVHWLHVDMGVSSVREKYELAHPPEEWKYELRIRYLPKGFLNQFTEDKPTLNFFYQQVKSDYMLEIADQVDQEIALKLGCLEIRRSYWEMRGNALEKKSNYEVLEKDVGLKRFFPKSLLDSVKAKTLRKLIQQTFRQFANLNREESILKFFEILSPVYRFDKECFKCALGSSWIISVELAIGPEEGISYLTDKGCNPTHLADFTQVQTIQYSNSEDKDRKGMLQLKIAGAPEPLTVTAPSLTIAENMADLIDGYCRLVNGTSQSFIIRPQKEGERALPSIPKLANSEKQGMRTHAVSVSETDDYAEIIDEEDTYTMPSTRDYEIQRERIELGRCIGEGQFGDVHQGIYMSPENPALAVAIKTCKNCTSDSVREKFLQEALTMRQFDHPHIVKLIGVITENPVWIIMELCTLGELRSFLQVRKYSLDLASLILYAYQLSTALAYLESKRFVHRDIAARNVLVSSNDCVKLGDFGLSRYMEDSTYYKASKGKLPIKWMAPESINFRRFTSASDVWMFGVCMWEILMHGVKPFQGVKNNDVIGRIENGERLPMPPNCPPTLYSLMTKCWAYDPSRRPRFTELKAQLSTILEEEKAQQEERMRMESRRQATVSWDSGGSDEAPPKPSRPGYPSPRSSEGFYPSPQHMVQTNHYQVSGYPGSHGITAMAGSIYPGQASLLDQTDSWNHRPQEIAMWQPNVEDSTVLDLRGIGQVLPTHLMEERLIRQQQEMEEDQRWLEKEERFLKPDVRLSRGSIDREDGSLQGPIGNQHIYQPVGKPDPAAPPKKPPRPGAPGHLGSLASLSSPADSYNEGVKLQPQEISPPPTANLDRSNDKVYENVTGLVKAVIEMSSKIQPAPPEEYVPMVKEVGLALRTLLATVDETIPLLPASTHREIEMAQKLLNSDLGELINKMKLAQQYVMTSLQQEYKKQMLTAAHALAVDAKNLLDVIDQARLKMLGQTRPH

What is called pKi is the negative decadic logarithm of the Ki, by convention in mol/L. In the case of `NCCNc1cccc(-c2ccnc3[nH]c4ccccc4c23)c1` [AS283], the remaining activity at 1 µM at Pim-3(h) is 97%; on GSK3α(h), 82%; on CaMKIIβ(h), 5%; at MEK1(h), 85%; on PKG1β(h), 38%; at CaMKI(h), 107%. Also, the remaining activity at 1 µM on FAK(h) is 68%; on FGFR1(h) it was 58%; on Flt3(h) it was 3%; at Arg(h), 96%; on mTOR(h) it was 115%; on Ret(h), 44%. In addition, the remaining activity at 1 µM on PAK2(h) came out at 76%. Further, the pKi at purified CaMKIIα is 7.15.
